As a reminder, the MIC is the lowest concentration that inhibits growth of the organism. Higher therefore signals a need for much substance.

One assay concerns Paecilomyces lilacinus. The experiment in a line: Antimicrobial activity against Paecilomyces lilacinus by microdilution method. As to conditions: Purpureocillium lilacinum. Type of assay: functional. (In general: Broth dilution looks for growth in wells or tubes with falling amounts of substance.)
The next assay has as its system Paecilomyces variotii. The experiment in a line: Antimicrobial activity against Paecilomyces variotii by microdilution method. Type of assay: functional.

Values after ≈ are worked out from the molar mass of the structure shown. Starred links: 1 amine or outer side, 2 acyl side, 3 side chain; linkers in the order of their positions; H or OH if unused. Positions of bridges follow the written chain, without caps; N, C: chain ends. Non-standard residues stand in square brackets, D forms with d. Residues, ends and D or L forms follow the SMILES beside them. *: point of attachment. hTyr(3S-OH,4S-OH,3'-OSO3H) = N[C@H](C(=O)O)[C@H](O)[C@@H](O)c1ccc(O)c(OS(=O)(=O)O)c1; pTerphenylCO(4''-OnC5H11) = CCCCCOc1ccc(-c2ccc(-c3ccc(C(=O)*)cc3)cc2)cc1; Orn(4R-OH,5R-OH) = O=C([C@H](C[C@@H](O)[C@@H](O)N[*:3])N[*:1])[*:2]; hTyr(3S-OH,4S-OH) = N[C@H](C(=O)O)[C@H](O)[C@@H](O)c1ccc(O)cc1; Pro(3S-OH,4S-Me) = C[C@H]1CN[C@H](C(=O)O)[C@H]1O; X1 = CCCCCOc1ccc(-c2cc(-c3ccc(C(=O)*)cc3)no2)cc1; Gln(3R-OH) = NC(=O)C[C@@H](O)[C@H](N)C(=O)O; Hyp = O=C(O)[C@@H]1C[C@@H](O)CN1

As to `CCCCCOc1ccc(-c2cc(-c3ccc(C(=O)N[C@H]4C[C@@H](O)[C@@H](O)NC(=O)[C@@H]5[C@@H](O)[C@@H](C)CN5C(=O)[C@H]([C@H](O)CC(N)=O)NC(=O)[C@H]([C@H](O)[C@@H](O)c5ccc(O)c(OS(=O)(=O)O)c5)NC(=O)[C@@H]5C[C@@H](O)CN5C(=O)[C@H]([C@@H](C)O)NC4=O)cc3)no2)cc1` [MICAFUNGIN] (X1-[Orn(4R-OH,5R-OH)]T[Hyp][hTyr(3S-OH,4S-OH,3'-OSO3H)][Gln(3R-OH)][Pro(3S-OH,4S-Me)]; lactam 1-C), the MIC against Paecilomyces lilacinus is 25.6 mg/L (≈ 20.2 µM); against Paecilomyces variotii, 0.018 mg/L (≈ 0.0142 µM).
On to `C[C@@H](c1nc(-c2ccc(C#N)cc2)cs1)[C@](O)(Cn1cncn1)c1ccc(F)cc1F` [RAVUCONAZOLE], for which the results for the MIC against Paecilomyces lilacinus and against Paecilomyces variotii were 0.73 mg/L (≈ 1.67 µM) and 4.89 mg/L (≈ 11.2 µM), respectively.
For `CCCCCOc1ccc(-c2ccc(-c3ccc(C(=O)N[C@H]4C[C@@H](O)[C@@H](O)NC(=O)[C@@H]5[C@@H](O)[C@@H](C)CN5C(=O)[C@H]([C@@H](C)O)NC(=O)[C@H]([C@H](O)[C@@H](O)c5ccc(O)cc5)NC(=O)[C@@H]5C[C@@H](O)CN5C(=O)[C@H]([C@@H](C)O)NC4=O)cc3)cc2)cc1` [ANIDULAFUNGIN] ({pTerphenylCO(4''-OnC5H11)}-[Orn(4R-OH,5R-OH)]T[Hyp][hTyr(3S-OH,4S-OH)]T[Pro(3S-OH,4S-Me)]; lactam 1-C), in that order: 27.1 mg/L (≈ 23.8 µM) and 0.016 mg/L (≈ 0.014 µM).
The corresponding values for `CCC(C)n1ncn(-c2ccc(N3CCN(c4ccc(OCC5COC(Cn6cncn6)(c6ccc(Cl)cc6Cl)O5)cc4)CC3)cc2)c1=O` (stereo not drawn) [ITRACONAZOLE] are 13.4 mg/L (≈ 19 µM) and 0.06 mg/L (≈ 0.085 µM).
The corresponding values for `C[C@@H]1[C@H](O)[C@@H](C)/C=C/C=C/C=C/C=C/C=C/C=C/C=C/[C@H](O[C@@H]2O[C@H](C)[C@@H](O)[C@H](N)[C@@H]2O)C[C@@H]2O[C@](O)(C[C@@H](O)C[C@@H](O)[C@H](O)CC[C@@H](O)C[C@@H](O)CC(=O)O[C@H]1C)C[C@H](O)[C@H]2C(=O)O` [AMPHOTERICIN B] are 29.6 mg/L (≈ 32 µM) and 0.04 mg/L (≈ 0.0433 µM).
Regarding `CN(C/C=C/C#CC(C)(C)C)Cc1cccc2ccccc12` [TERBINAFINE], the MIC in the assay with Paecilomyces lilacinus amounted to 0.51 mg/L (≈ 1.75 µM); in the assay on Paecilomyces variotii, 1.53 mg/L (≈ 5.25 µM).
For `C[C@@H](c1ncncc1F)[C@](O)(Cn1cncn1)c1ccc(F)cc1F` [VORICONAZOLE], in that order: 0.45 mg/L (≈ 1.29 µM) and 4.18 mg/L (≈ 12 µM).
Consider `CC[C@H](C)C[C@H](C)CCCCCCCCC(=O)N[C@H]1C[C@@H](O)[C@@H](NCCN)NC(=O)[C@@H]2[C@@H](O)CCN2C(=O)[C@H]([C@H](O)CCN)NC(=O)[C@H]([C@H](O)[C@@H](O)c2ccc(O)cc2)NC(=O)[C@@H]2C[C@@H](O)CN2C(=O)[C@H]([C@@H](C)O)NC1=O` [CASPOFUNGIN], for which the results for the MIC against Paecilomyces lilacinus and with Paecilomyces variotii were 27.9 mg/L (≈ 25.5 µM) and 0.44 mg/L (≈ 0.402 µM), respectively.
For `CC[C@@H]([C@H](C)O)n1ncn(-c2ccc(N3CCN(c4ccc(OC[C@@H]5CO[C@@](Cn6cncn6)(c6ccc(F)cc6F)C5)cc4)CC3)cc2)c1=O` [POSACONAZOLE], in that order: 0.28 mg/L (≈ 0.4 µM) and 0.04 mg/L (≈ 0.0571 µM).

These data come from ChEMBL document CHEMBL1275470, “Susceptibility testing and molecular classification of Paecilomyces spp” (2008).
